Laboratory results taken from patent US4156777A, “Process for producing glucopyranose-nitrosourea compounds and novel compounds included therein” (Tokyo Tanabe Company, Limited, priority 1977, dated 1979).
Converted amounts (≈) assume the structure as drawn.

How the values were obtained:
[1] = test system: Pseudomonas aeruginosa IFO 3080; test: Antibacterial activity, broth-dilution method; assay type: cell-based; conditions: IFO3080
Description: (§1) Using 6DCNU and 6MCαG, minimum inhibiting concentrations (referred to as "MIC") for various kinds of bacteria were estimated by means of the broth-dilution method.

[2] = test system: Proteus vulgaris AHU 1469; test: Antibacterial activity, broth-dilution method; assay type: cell-based; conditions: AHU1469
Description: as §1

[3] = test system: Bacillus subtilis ATCC 6633; test: Antibacterial activity, broth-dilution method; assay type: cell-based; conditions: ATCC6633
Description: as §1

[4] = test system: Shigella sonnei; test: Antibacterial activity, broth-dilution method; assay type: cell-based
Description: as §1

[5] = test system: Escherichia coli NIHJ JC-2; test: Antibacterial activity, broth-dilution method; assay type: cell-based; conditions: NIHJJC2
Description: as §1

[6] = test system: Sarcina lutea ATCC 9341; test: Antibacterial activity, broth-dilution method; assay type: cell-based; conditions: Micrococcus luteus, ATCC9341
Description: as §1

[7] = test system: Streptococcus faecalis AHU 1085; test: Antibacterial activity, broth-dilution method; assay type: cell-based; conditions: Enterococcus faecalis, AHU1085
Description: as §1

[8] = test system: Mycobacterium smegmatis ATCC 607; test: Antibacterial activity, broth-dilution method; assay type: cell-based; conditions: Mycolicibacterium smegmatis, ATCC607
Description: as §1

[9] = test system: Klebsiella pneumoniae IFM 3008; test: Antibacterial activity, broth-dilution method; assay type: cell-based; conditions: IFM3008
Description: as §1

[10] = test system: Staphylococcus aureus FDA 209P JC-1; test: Antibacterial activity, broth-dilution method; assay type: cell-based; conditions: FDA209P
Description: as §1

[11] = Acute toxicity (LD50); assay type: in vivo, male Wister rats; conditions: for LD50 at 168 h: rat, in vivo, after 1 week
Method: Test compounds were dissolved in physiological saline solution just before their dosage and administered to male Wister rats, intraperitoneally, intravenously and orally. After 1 week, the LD50 of each compound was calculated from the mortality of the test animals by the Lichfield-Wilcoxon Method.
i.v.: intravenous administration

[12] = Solubility in water at 25° C.; assay type: physicochemical; conditions: for solubility: amount soluble in 1 ml water at 25° C.
[13] = Diabetogenic activity (blood glucose concentration after intravenous administration); assay type: in vivo, male Wister rats; conditions: for blood glucose concentrations versus control, in words: i.v., rats
Method: 40-96 mg/kg of the test compounds were administered intravenously to starved male Wister rats weighing 240-260 g each, and the blood glucose concentrations of the test animals were estimated by the glucose exidase method [L. L. Saloman et al: Anal. Chem., 31 (1959), 453], in which test the compounds were dissolved in physiological saline solution just before administration. […]

[14] = Absorption and excretion of 14C-labelled compounds; assay type: in vivo, rats; conditions: for absorption, in words / excretion rate, intravenous versus oral administration, in words / main route of excretion, in words: rats, 14C-labelled
Method: The carbon atom at the 2-position of the chloroethyl group (i.e. ClCH2 CH2 -) of 6DCNU and 6MCαG was labelled with radioactive ^14 C, and the absorption and excretion of these compounds were tested using rats.

[15] = Effect on respiration, blood pressure, heart rate and electrocardiogram; assay type: in vivo, Beagle dogs; conditions: for NOAEL: dog, in vivo, iv, injected into brachial veins, anesthetized Beagle dogs, read-out: maximum dosage not effected on respiration, blood pressure, heart rate and electrocardiogram
Method: Beagle dogs of both sexes weighing about 10 kg were anesthetized with pentobarbital sodium (30 mg/kg, i.v.), and immobilized in the supine position. Test compounds dissolved in physiological saline solution were injected into the brachial veins of the animals and the arteries at cannulated positions were treated with heparin sodium as anticoagulant.
The respiration rate of each animal was estimated with a respirometer (Nihonkohden, RP-3) through a tracheal cannula, the blood pressure with an electro-haemodynamometer (Nihonkohden, MP-4T) attached surgically to the femoral artery, and the heart rate with a pulse-rate tachometer (Nihonkohden, RT-2) through the trigger pulse of the blood pressure.

[16] = 40 mg/kg i.v., 0 hr after treatment
[17] = 40 mg/kg i.v., 2 hr after treatment
[18] = 40 mg/kg i.v., 4 hr after treatment
[19] = 40 mg/kg i.v., 7 hr after treatment
[20] = 40 mg/kg i.v., 10 hr after treatment
[21] = 40 mg/kg i.v., 24 hr after treatment
[22] = 40 mg/kg i.v., 48 hr after treatment
[23] = 60 mg/kg i.v., 0 hr after treatment
[24] = 60 mg/kg i.v., 2 hr after treatment
[25] = 60 mg/kg i.v., 4 hr after treatment
[26] = 60 mg/kg i.v., 7 hr after treatment
[27] = 60 mg/kg i.v., 10 hr after treatment
[28] = 60 mg/kg i.v., 24 hr after treatment
[29] = 60 mg/kg i.v., 48 hr after treatment

SMILES: CO[C@H]1O[C@H](CNC(=O)N(CCCl)N=O)[C@@H](O)[C@H](O)[C@H]1O [Example 6MCαG, 1-(2-chloroethyl)-3-(methyl α-D-glucopyranos-6-yl)-1-nitrosourea]
- MIC [1]: > 200 µg/mL
- MIC [2]: > 200 µg/mL
- MIC [3]: > 200 µg/mL
- MIC [4]: > 200 µg/mL
- MIC [5]: > 200 µg/mL
- MIC [6]: > 200 µg/mL
- MIC [7]: > 200 µg/mL
- MIC [8]: > 200 µg/mL
- MIC [9]: > 200 µg/mL
- MIC [10]: > 200 µg/mL
- LD50 at 168 h ([11]; ip): 42 mg/kg
- LD50 at 168 h ([11]; iv): 42 mg/kg
- LD50 at 168 h ([11]; po): 50 mg/kg
- solubility [12]: 900 mg/mL (≈ 2750 mM)
- Blood Glucose Concentration [13, 16]: 72.0 mg/dL
- Blood Glucose Concentration [13, 17]: 75.9 mg/dL
- Blood Glucose Concentration [13, 18]: 79.3 mg/dL
- Blood Glucose Concentration [13, 19]: 71.7 mg/dL
- Blood Glucose Concentration [13, 20]: 79.4 mg/dL
- Blood Glucose Concentration [13, 21]: 73.1 mg/dL
- Blood Glucose Concentration [13, 22]: 75.3 mg/dL
- Blood Glucose Concentration [13, 23]: 71.8 mg/dL
- Blood Glucose Concentration [13, 24]: 72.5 mg/dL
- Blood Glucose Concentration [13, 25]: 69.8 mg/dL
- Blood Glucose Concentration [13, 26]: 68.7 mg/dL
- Blood Glucose Concentration [13, 27]: 67.7 mg/dL
- Blood Glucose Concentration [13, 28]: 68.4 mg/dL
- Blood Glucose Concentration [13, 29]: 70.8 mg/dL
- Blood Glucose Concentration ([13]; 80 mg/kg i.v., 0 hr after treatment): 73.7 mg/dL
- Blood Glucose Concentration ([13]; 80 mg/kg i.v., 2 hr after treatment): 82.0 mg/dL
- Blood Glucose Concentration ([13]; 80 mg/kg i.v., 4 hr after treatment): 78.3 mg/dL
- Blood Glucose Concentration ([13]; 80 mg/kg i.v., 7 hr after treatment): 77.8 mg/dL
- Blood Glucose Concentration ([13]; 80 mg/kg i.v., 10 hr after treatment): 73.6 mg/dL
- Blood Glucose Concentration ([13]; 80 mg/kg i.v., 24 hr after treatment): 76.3 mg/dL
- Blood Glucose Concentration ([13]; 80 mg/kg i.v., 48 hr after treatment): 83.1 mg/dL
- blood glucose concentrations versus control, in words [13]: substantially the same blood glucose concentrations as that in the control
- absorption, in words [14]: absorbed well
- excretion rate, intravenous versus oral administration, in words [14]: almost the same excretion rates
- main route of excretion, in words [14]: excreted mainly in the urine
- NOAEL [15]: 50 mg/kg

SMILES: O=NN(CCCl)C(=O)NC[C@H]1OC(O)[C@H](O)[C@@H](O)[C@@H]1O (stereo partly drawn) [Example 6DCNU, 3-(D-glucopyranos-6-yl)-1-(2-chloroethyl)-1-nitrosourea]
- MIC [1]: > 200 µg/mL
- MIC [2]: > 200 µg/mL
- MIC [3]: > 200 µg/mL
- MIC [4]: > 200 µg/mL
- MIC [5]: > 200 µg/mL
- MIC [6]: > 200 µg/mL
- MIC [7]: > 200 µg/mL
- MIC [8]: > 200 µg/mL
- MIC [9]: > 200 µg/mL
- MIC [10]: > 200 µg/mL
- LD50 at 168 h ([11]; ip): 90 mg/kg
- LD50 at 168 h ([11]; iv): 85 mg/kg
- LD50 at 168 h ([11]; po): 132 mg/kg
- LD50, comparison in words ([11]; rats): higher than that of the other known compounds
- solubility [12]: 750 mg/mL (≈ 2390 mM)
- solubility in water, comparison in words ([12]; water, 25° C.): higher than that of both DCNU and 2MCαG and is almost equal to that of 6MCαG
- Blood Glucose Concentration [13, 16]: 70.4 mg/dL
- Blood Glucose Concentration [13, 17]: 73.3 mg/dL
- Blood Glucose Concentration [13, 18]: 67.7 mg/dL
- Blood Glucose Concentration [13, 19]: 68.2 mg/dL
- Blood Glucose Concentration [13, 20]: 68.3 mg/dL
- Blood Glucose Concentration [13, 21]: 69.9 mg/dL
- Blood Glucose Concentration [13, 22]: 73.8 mg/dL
- Blood Glucose Concentration [13, 23]: 72.0 mg/dL
- Blood Glucose Concentration [13, 24]: 74.2 mg/dL
- Blood Glucose Concentration [13, 25]: 78.3 mg/dL
- Blood Glucose Concentration [13, 26]: 76.8 mg/dL
- Blood Glucose Concentration [13, 27]: 79.2 mg/dL
- Blood Glucose Concentration [13, 28]: 78.7 mg/dL
- Blood Glucose Concentration [13, 29]: 79.4 mg/dL
- Blood Glucose Concentration ([13]; 77 mg/kg i.v., 0 hr after treatment): 72.4 mg/dL
- Blood Glucose Concentration ([13]; 77 mg/kg i.v., 2 hr after treatment): 75.3 mg/dL
- Blood Glucose Concentration ([13]; 77 mg/kg i.v., 4 hr after treatment): 75.8 mg/dL
- Blood Glucose Concentration ([13]; 77 mg/kg i.v., 7 hr after treatment): 79.8 mg/dL
- Blood Glucose Concentration ([13]; 77 mg/kg i.v., 10 hr after treatment): 76.2 mg/dL
- Blood Glucose Concentration ([13]; 77 mg/kg i.v., 24 hr after treatment): 78.2 mg/dL
- Blood Glucose Concentration ([13]; 77 mg/kg i.v., 48 hr after treatment): 80.5 mg/dL
- blood glucose concentrations versus control, in words [13]: substantially the same blood glucose concentrations as that in the control
- diabetogenic activity, in words ([13]; rat, in vivo): low diabetogenic activity
- absorption, in words [14]: absorbed well
- excretion rate, intravenous versus oral administration, in words [14]: almost the same excretion rates
- main route of excretion, in words [14]: excreted mainly in the urine
- excretion in faeces, comparison in words ([14]; versus 6MCαG): excreted more than 6MCαG in faeces
- excretion velocity, comparison in words ([14]; versus 6MCαG): more rapid than that of 6MCαG
- toxicity inferred from excretion, in words ([14]; versus 6MCαG): less toxic than 6MCαG
- maximum dosage without effect, comparison in words ([15]; Beagle dogs): highest dosage value
- NOAEL [15]: 70 mg/kg
